From patent US9949972B2, “Combinations of histone deacetylase inhibitors and immunomodulatory drugs” (Acetylon Pharmaceuticals, Inc., priority 2013, dated 2018) come the findings set out here.

One test has as its target T1, HDAC6 (Homo sapiens, UniProt Q9UBN7).
T1 construct: purchased BPS Biosciences
T1 sequence (Q9UBN7 1-1215): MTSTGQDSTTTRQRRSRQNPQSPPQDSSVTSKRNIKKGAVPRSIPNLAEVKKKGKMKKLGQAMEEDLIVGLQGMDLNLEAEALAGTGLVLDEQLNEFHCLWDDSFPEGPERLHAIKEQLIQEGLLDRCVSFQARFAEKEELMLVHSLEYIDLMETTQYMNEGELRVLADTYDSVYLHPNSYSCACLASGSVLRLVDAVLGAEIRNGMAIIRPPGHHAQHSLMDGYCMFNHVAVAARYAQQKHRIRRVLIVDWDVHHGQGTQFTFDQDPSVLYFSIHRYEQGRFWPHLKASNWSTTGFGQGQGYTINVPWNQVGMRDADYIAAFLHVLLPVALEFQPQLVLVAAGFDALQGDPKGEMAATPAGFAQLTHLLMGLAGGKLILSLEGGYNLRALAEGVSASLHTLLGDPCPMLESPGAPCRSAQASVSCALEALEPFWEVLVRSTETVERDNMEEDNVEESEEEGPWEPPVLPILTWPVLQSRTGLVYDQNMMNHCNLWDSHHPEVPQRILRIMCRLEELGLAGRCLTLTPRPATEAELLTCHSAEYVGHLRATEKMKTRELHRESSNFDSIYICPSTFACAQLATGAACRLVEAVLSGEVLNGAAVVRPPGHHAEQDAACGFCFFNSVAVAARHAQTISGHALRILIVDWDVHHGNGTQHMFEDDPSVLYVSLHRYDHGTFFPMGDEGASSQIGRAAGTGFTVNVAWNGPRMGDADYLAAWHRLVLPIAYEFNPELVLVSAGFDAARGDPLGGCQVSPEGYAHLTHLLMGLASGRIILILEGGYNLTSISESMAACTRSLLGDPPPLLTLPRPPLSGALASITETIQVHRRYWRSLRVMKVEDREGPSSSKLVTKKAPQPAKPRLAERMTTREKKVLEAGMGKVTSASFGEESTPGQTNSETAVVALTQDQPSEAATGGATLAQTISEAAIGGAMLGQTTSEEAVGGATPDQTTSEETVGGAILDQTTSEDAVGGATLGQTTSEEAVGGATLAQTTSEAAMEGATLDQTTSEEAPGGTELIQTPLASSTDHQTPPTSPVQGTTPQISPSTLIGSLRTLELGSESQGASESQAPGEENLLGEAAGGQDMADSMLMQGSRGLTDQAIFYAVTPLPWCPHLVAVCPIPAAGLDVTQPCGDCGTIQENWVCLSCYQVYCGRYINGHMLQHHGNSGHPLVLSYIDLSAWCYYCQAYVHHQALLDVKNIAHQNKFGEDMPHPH
Description: HDAC enzyme assays (selectivity). Type of test: biochemical. As to conditions: HDAC6 vs class I HDACs. How it is done:
Compounds for testing were diluted in DMSO to 50 fold the final concentration and a ten point three fold dilution series was made. The compounds were diluted in assay buffer (50 mM HEPES, pH 7.4, 100 mM KCl, 0.001% Tween-20, 0.05% BSA, 20 μM TCEP) to 6 fold their final concentration. The HDAC enzymes (purchased from BPS Biosciences) were diluted to 1.5 fold their final concentration in assay buffer. The tripeptide substrate and trypsin at 0.05 μM final concentration were diluted in assay buffer at 6 fold their final concentration. The final enzyme concentrations used in these assays were 3.3 ng/ml (HDAC1), 0.2 ng/ml (HDAC2), 0.08 ng/ml (HDAC3) and 2 ng/ml (HDAC6). […] Five μl of compound and 20 μl of enzyme were added to wells of a black, opaque 384 well plate in duplicate. Enzyme and compound were incubated together at room temperature for 10 minutes. Five μl of substrate was added to each well, the plate was shaken for 60 seconds and placed into a Victor 2 microtiter plate reader. The development of fluorescence was monitored for 60 min and the linear rate of the reaction was calculated. The IC50 was determined using Graph Pad Prism by a four parameter curve fit.

Test [1] concerns Mino mantle cell lymphoma cells. Put plainly: Cell cycle inhibition, Mino cells. The following applies: 4 days, Compound A or B 2 μM, Lenalidomide 2 μM, Pomalidomide 1 μM. It is filed as cell-based.
Test [2] deals with Jeko1 mantle cell lymphoma cells. Put plainly: Cell cycle inhibition, Jeko1 cells. It is filed as cell-based. The following applies: 4 days, Compound B 2 μM, Lenalidomide 2 μM, Pomalidomide 1 μM.

For `O=C(CCCCCCNC(=O)c1cnc(N(c2ccccc2)c2ccccc2)nc1)NO` [Compound A, 2-(diphenylamino)-N-(7-(hydroxyamino)-7-oxoheptyl)pyrimidine-5-carboxamide], the “selectivity for HDAC6 over class I HDAC's” value on HDAC6 is “approximately 11 fold”. The cell cycle progression result in test [1] is reported as “decreased cell cycle progression”.

As to `O=C(CCCCCCNC(=O)c1cnc(N(c2ccccc2)c2ccccc2Cl)nc1)NO` [Compound B, 2-((2-chlorophenyl)(phenyl)amino)-N-(7-(hydroxyamino)-7-oxoheptyl)pyrimidine-5-carboxamide], the cell cycle progression entry in test [2] and in test [1] was “decreased cell cycle progression” each time.

As to `O=C(NO)c1cnc(NC2(c3cccc(F)c3)CCCCC2)nc1` [Compound C, 2-((1-(3-fluorophenyl)cyclohexyl)amino)-N-hydroxypyrimidine-5-carboxamide], the “selectivity for HDAC6 over class I HDAC's” value on HDAC6 was “more than 300 fold”.
